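96-well plates; 48 h exposure; 5 concentrations. Endpoints by linear interpolation between flanking doses. Not reached: highest tested concentration assigned. GI50: concentration for 50% inhibition of growth.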 Calls of active or inactive are those of the source. Rule as the data show it: active = GI50 up to about 1.1 µM and inactive = higher.

Test systems include SK-MEL-5; SF-268; SW-620; U-251; MDA-N; OVCAR-4; CCRF-CEM; COLO 205; SNB-19; A549; K562; TK-10; UACC-257; NCI-H460; CAKI-1; HCC 2998; PC-3; MDA-MB-231; DU-145; HL-60.
Common to all, as to experiment: NCI anticancer screen, dose series, 48 h

With `CN1CCCOC(c2ccc([N+](=O)[O-])cc2)O1` (stereo unspecified), the GI50 in the test with SK-MEL-5, in the test on SF-268, in the test with SW-620, in the test on U-251, in the test with MDA-N and with OVCAR-4 was > 100 µM (inactive) in each case. In addition, the GI50 in the test with CCRF-CEM, in the test with COLO 205, in the test with SNB-19, with A549, in the test with K562 and with TK-10 was > 100 µM (inactive) in each case. In addition, the GI50 with UACC-257, with NCI-H460, in the test on CAKI-1, with HCC 2998, with PC-3 and with MDA-MB-231 was > 100 µM (inactive) each time. Further, the GI50 in the test on DU-145 was > 100 µM (inactive).
Consider `COC(=O)C1CC2CC1C1C2SC(F)(F)C1(F)F` (stereo unspecified), for which the GI50 with SK-MEL-5, with SF-268, with SW-620, in the test on U-251, in the test on MDA-N and in the test on OVCAR-4 was > 100 µM (inactive) throughout. The GI50 in the test with COLO 205, in the test on SNB-19, in the test with A549, with TK-10, with UACC-257 and in the test with NCI-H460 was > 100 µM (inactive) in each case. Also, the GI50 with CAKI-1, in the test on HCC 2998, in the test on PC-3, in the test with MDA-MB-231 and with DU-145 was > 100 µM (inactive) each time.
With `O=[N+]([O-])C(=C/c1cccc2ccccc12)/C(=C\c1cccc2ccccc12)[N+](=O)[O-]`, the GI50 is 2.9 µM (inactive) in the test with SK-MEL-5; 2.32 µM (inactive) with SF-268; 1.89 µM (inactive) with SW-620; 1.95 µM (inactive) with U-251; 2.62 µM (inactive) in the test with MDA-N; 2.91 µM (inactive) in the test with OVCAR-4. For the same compound, the GI50 was 0.528 µM (active) in the test with CCRF-CEM; 3.44 µM (inactive) in the test with COLO 205; 4.51 µM (inactive) with SNB-19; 15.3 µM (inactive) with A549; 3.08 µM (inactive) with K562; 2.17 µM (inactive) in the test with TK-10. Besides, the GI50 was 2.32 µM (inactive) in the test with UACC-257; 2.34 µM (inactive) with NCI-H460; 2.2 µM (inactive) in the test with CAKI-1; 2.42 µM (inactive) in the test on HCC 2998; 5.24 µM (inactive) in the test with PC-3; 2.1 µM (inactive) in the test with MDA-MB-231. In the test with DU-145, the GI50 is 2.84 µM (inactive).
For the compound `Clc1ccc(Cc2nc3cc(Cl)c(Cl)cc3n2CC2CCCN3CCCCC23)cc1` (stereo unspecified), the GI50 in the test with SK-MEL-5 is 11.3 µM (inactive); in the test on SF-268 it was 8.17 µM (inactive); in the test on SW-620 it was 13.6 µM (inactive); in the test with U-251 it was 8.11 µM (inactive); in the test with HL-60, 5.55 µM (inactive); in the test with MDA-N it was 11.7 µM (inactive). Further, the GI50 in the test on OVCAR-4 is 16.7 µM (inactive); in the test on COLO 205 it was 10.3 µM (inactive); in the test with SNB-19, 13.9 µM (inactive); in the test on A549 it was 13.2 µM (inactive); in the test with K562 it was 7.41 µM (inactive); in the test on TK-10, 14.4 µM (inactive). Also, the GI50 with UACC-257 is 3.81 µM (inactive); in the test with NCI-H460 it was 7.53 µM (inactive); in the test with CAKI-1, 14.7 µM (inactive); in the test on HCC 2998, 3.68 µM (inactive); in the test on PC-3, 9.04 µM (inactive); in the test on MDA-MB-231, 4.13 µM (inactive). In the test with DU-145, the GI50 is 12 µM (inactive).
As for `CCOC(=O)c1sc2nc(SC)nc3c2c1NCN3C`, the GI50 was 51.5 µM (inactive) in the test with SK-MEL-5; 16.7 µM (inactive) in the test with SF-268; 20.6 µM (inactive) in the test with U-251; > 100 µM (inactive) in the test with MDA-N; 20.4 µM (inactive) in the test on OVCAR-4; > 100 µM (inactive) with CCRF-CEM. The GI50 in the test with COLO 205 was > 100 µM (inactive); in the test with SNB-19, 20.5 µM (inactive); in the test with A549 it was 16.9 µM (inactive); in the test with TK-10, 25 µM (inactive); in the test on UACC-257 it was > 100 µM (inactive); with NCI-H460, 32.1 µM (inactive). The GI50 in the test with CAKI-1 was 22.5 µM (inactive); in the test with HCC 2998, 62.1 µM (inactive); in the test on PC-3 it was > 100 µM (inactive); with MDA-MB-231, 28.1 µM (inactive); with DU-145 it was 70.1 µM (inactive).
Turning to `CNC(=O)N(CCC#N)CCN(C(=O)NC)c1ccccc1`, the GI50 with SK-MEL-5, in the test on SF-268, in the test with SW-620, in the test with U-251, with MDA-N and in the test with OVCAR-4 was > 100 µM (inactive) in each case. For the same compound, the GI50 with CCRF-CEM, in the test with COLO 205, in the test with SNB-19, in the test with A549, in the test on K562 and with TK-10 was > 100 µM (inactive) each time. Moreover, the GI50 with UACC-257, with NCI-H460, in the test on CAKI-1, in the test with HCC 2998, in the test on PC-3 and in the test on MDA-MB-231 was > 100 µM (inactive) each time. For the same compound, the GI50 in the test on DU-145 was > 100 µM (inactive).
For `CCCCCCCCC/C=C1\CC(CO)(COC(=O)c2ccccc2)OC1=O` (stereo unspecified), the GI50 was 12.5 µM (inactive) with SK-MEL-5; 22.7 µM (inactive) with SF-268; 19.1 µM (inactive) in the test with SW-620; 21.1 µM (inactive) in the test on U-251; 16.6 µM (inactive) in the test on MDA-N; 35.1 µM (inactive) with OVCAR-4. Further, the GI50 with CCRF-CEM is 16.9 µM (inactive); in the test with COLO 205 it was 16.6 µM (inactive); with SNB-19, 20.9 µM (inactive); in the test with A549, 20 µM (inactive); with K562, 27.9 µM (inactive); in the test on TK-10 it was 18.6 µM (inactive). Moreover, the GI50 is 26.5 µM (inactive) in the test on UACC-257; 16 µM (inactive) with NCI-H460; 19.4 µM (inactive) in the test with CAKI-1; 22.8 µM (inactive) in the test with HCC 2998; 17.2 µM (inactive) with PC-3; 19.3 µM (inactive) in the test on MDA-MB-231. The GI50 in the test on DU-145 is 29.1 µM (inactive).
Take `O=C1C[C@@]23CCC4(CC2CCC[C@H]3O1)OCCO4` (stereo partly specified): the GI50 in the test with SK-MEL-5, with SF-268, with SW-620, with U-251, in the test with HL-60 and in the test with MDA-N was > 100 µM (inactive) each time. For the same compound, the GI50 with OVCAR-4, in the test on COLO 205, in the test with SNB-19, with A549, in the test on K562 and in the test with UACC-257 was > 100 µM (inactive) throughout. Further, the GI50 in the test on NCI-H460, in the test with HCC 2998, with PC-3, in the test with MDA-MB-231 and with DU-145 was > 100 µM (inactive) each time.
Take `c1ccc2c(c1)[nH]c1c2cc[n+]2cc3c(cc12)CCCC3`: the GI50 in the test with SK-MEL-5 is 1.54 µM (inactive); with SF-268 it was 2.93 µM (inactive); in the test on SW-620, 2.1 µM (inactive); in the test on U-251 it was 2.51 µM (inactive); with MDA-N, 1.57 µM (inactive); in the test with OVCAR-4, 1.72 µM (inactive). Further, the GI50 is 0.38 µM (active) in the test with COLO 205; 3 µM (inactive) in the test with SNB-19; 6.93 µM (inactive) in the test with A549; 1.6 µM (inactive) in the test on K562; 6.68 µM (inactive) with TK-10; 4.09 µM (inactive) in the test with UACC-257. Further, the GI50 in the test with NCI-H460 is 1.34 µM (inactive); with CAKI-1 it was 17.2 µM (inactive); in the test on HCC 2998 it was 1.87 µM (inactive); in the test on PC-3 it was 2.83 µM (inactive); with MDA-MB-231, 2 µM (inactive); in the test with DU-145 it was 2.69 µM (inactive).
Take `CCc1nc(N)c2nc(-c3ccc(C#N)cc3)oc2n1`: the GI50 in the test with SK-MEL-5 was > 100 µM (inactive); with SF-268, > 100 µM (inactive); in the test with SW-620, > 100 µM (inactive); in the test with HL-60, > 10 µM (inactive); with MDA-N, > 100 µM (inactive); in the test on CCRF-CEM it was > 100 µM (inactive). The GI50 in the test with COLO 205, in the test on SNB-19, with A549, in the test with K562, in the test on TK-10 and in the test on UACC-257 was > 100 µM (inactive) throughout. Also, the GI50 in the test with NCI-H460, in the test with CAKI-1, with HCC 2998, in the test on PC-3, in the test on MDA-MB-231 and in the test with DU-145 was > 100 µM (inactive) in each case.
For `CC(C)(C)CC(C)(C)c1cc(O)c(O)c(CN2CCCCC2)c1`, the GI50 in the test on SK-MEL-5 is 15.6 µM (inactive); in the test with SF-268 it was 12.6 µM (inactive); with SW-620 it was 13.2 µM (inactive); in the test with U-251, 11.9 µM (inactive); in the test with HL-60, 13.3 µM (inactive); in the test with MDA-N, 15.1 µM (inactive). The GI50 was 19.2 µM (inactive) with OVCAR-4; 12.7 µM (inactive) in the test with COLO 205; 15.3 µM (inactive) in the test with SNB-19; 17.1 µM (inactive) in the test with A549; 4.25 µM (inactive) in the test with K562; 16.1 µM (inactive) in the test with TK-10. Besides, the GI50 with UACC-257 is 13.3 µM (inactive); in the test on NCI-H460, 11.7 µM (inactive); in the test on CAKI-1, 14.2 µM (inactive); in the test on HCC 2998, 10.6 µM (inactive); in the test on PC-3 it was 13.9 µM (inactive); with MDA-MB-231, 17.7 µM (inactive). For the same compound, the GI50 with DU-145 is 14.5 µM (inactive).

For the origin of these results see ChEMBL document CHEMBL1201862, “PubChem BioAssay data set” (2004).
